Structures can show the parent of a compound that is named as a salt. Some results are limits rather than exact numbers.

For the first series, the target named is T1, human recombinant CYP1A1 (rCYP1A1) (Homo sapiens, UniProt P04798).
T1 sequence (P04798 1-512): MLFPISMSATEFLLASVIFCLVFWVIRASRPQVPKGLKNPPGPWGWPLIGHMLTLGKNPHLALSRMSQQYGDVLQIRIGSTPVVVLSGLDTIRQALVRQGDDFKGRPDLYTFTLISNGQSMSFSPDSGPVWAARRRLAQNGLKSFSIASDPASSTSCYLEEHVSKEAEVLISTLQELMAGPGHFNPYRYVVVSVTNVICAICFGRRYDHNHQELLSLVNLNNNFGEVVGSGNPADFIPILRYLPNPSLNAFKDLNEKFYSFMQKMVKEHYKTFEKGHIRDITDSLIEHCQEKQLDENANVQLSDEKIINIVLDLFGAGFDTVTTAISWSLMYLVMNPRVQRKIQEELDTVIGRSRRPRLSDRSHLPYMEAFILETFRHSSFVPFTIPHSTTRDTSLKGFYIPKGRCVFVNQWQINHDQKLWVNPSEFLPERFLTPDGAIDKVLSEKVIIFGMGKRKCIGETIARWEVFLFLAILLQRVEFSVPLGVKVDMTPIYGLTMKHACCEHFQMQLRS
The series can be described thus: CYP1A1 activity assay: inhibition of CEC metabolism (IC50). Conditions: CYP1A1 IC50 (range of colour key, Fig. 5a).
Turning to `CC(C)(C#N)c1cc(Cn2cncn2)cc(C(C)(C)C#N)c1` [Anastrozole, reference compound], the IC50 fell in the range of 100 to 1000 µM. The same measure, in the same setting: the value for `C[C@]12CC[C@H](O)CC1=CC[C@@H]1[C@@H]2CC[C@]2(C)C(=O)CC[C@@H]12` [DHEA, dehydroepiandrosterone] was 100 to 1000 µM.

Still in this series, the particulars now being: CYP1A1 IC50 (range of colour key, Fig. 5a), 5 µM CEC; range assigned by colour of the point.
On to `C[C@]12CC[C@@H]3c4ccc(O)cc4CC[C@H]3[C@@H]1[C@@H](O)[C@@H](O)[C@@H]2O` [Estetrol], for which the IC50 is 100 to 1000 µM.

Still in this series, the particulars now being: IC50.
Regarding `CC(C)(C#N)c1cc(Cn2cncn2)cc(C(C)(C)C#N)c1` [Anastrozole, reference compound], the IC50 turned out to be 190 µM. Regarding `C[C@]12CC[C@H](O)CC1=CC[C@@H]1[C@@H]2CC[C@]2(C)C(=O)CC[C@@H]12` [DHEA, dehydroepiandrosterone], the IC50 stood at 130 µM.

The same series, now with this note: IC50, 5 µM CEC; maximum tested concentration 200 µM (ketoconazole 20 µM); ∞ = the best fitted model was the constant model.
With `C[C@]12CC[C@@H]3c4ccc(O)cc4CC[C@H]3[C@@H]1[C@@H](O)[C@@H](O)[C@@H]2O` [Estetrol], the IC50 was over 200 µM.

In a further series the test system is human CYP1A1.
Assay: not given
Further details: unit not given beside the values. The settings on record: NVS_ADME_hCYP1A1; values appear to be log10; ref ToxCast; cited from earlier work.
For the compound `c1ccc(C(O[C@@H]2CCCN(CCc3ccc4c(c3)OCO4)C2)c2ccccc2)cc1` [Zamifenacin], the AC50 is 0.759.

Staying with this series, now noted: ToxCast NVS_ADME_hCYP1A1; NA = no AC50; ref ToxCast; cited from earlier work.
As to `CC1=C(/C=C/C(C)=C/C=C/C(C)=C/C(=O)O)C(C)(C)CCC1` [all-trans-Retinoic acid], the AC50 is 0.1194.

Still in this series, the particulars now being: ToxCast NVS_ADME_hCYP1A1; NA cells left out; ref ToxCast; cited from earlier work.
Regarding `COC(=O)c1c(Cl)c(Cl)c(C(=O)OC)c(Cl)c1Cl` [Chlorthal-dimethyl], the AC50 is -0.9489.

The same series, now with this note: cited from earlier work.
On to `Oc1ccc(C(c2ccc(O)cc2)C(Cl)(Cl)Cl)cc1`, for which the AC50 is given as 0.8687. For the compound `C=CCc1cc(S(=O)(=O)c2ccc(O)c(CC=C)c2)ccc1O`, the AC50 is recorded as 0.2892. In the case of `O=c1[nH]sc2ccccc12` [1,2-Benzisothiazolin-3-one], the AC50 is reported as 0.7251. On to `Nc1cccc2c(N)cccc12` [1,5-Naphthalenediamine], for which the AC50 was 0.8388. For the compound `Oc1ccc2ccc3cccc4ccc1c2c34` [1-Hydroxypyrene], the AC50 was 0.4188. Take `Cc1cc(N=Nc2ccccc2C)ccc1N` [2-Amino-5-azotoluene]: the AC50 is listed as 0.8236.

Take `Sc1nc2ccccc2s1` [2-Mercaptobenzothiazole]: the AC50 is -0.7864.

As for `COc1cc(-c2ccc(N)c(OC)c2)ccc1N` [3,3'-Dimethoxybenzidine], the AC50 was 0.5453.

`Oc1ccc2c(c1)-c1ccccc1C2` [3-Hydroxyfluorene]: the AC50 is 0.7484. As to `CN(C)c1ccc(Cc2ccc(N(C)C)cc2)cc1` [4,4'-Methylenebis(N,N-dimethylaniline)], the AC50 was 0.5763. Consider `CCCCCCCCn1sc(Cl)c(Cl)c1=O` [4,5-Dichloro-2-octyl-3(2H)-isothiazolone], for which the AC50 is reported as 0.9038. On to `Oc1cc2ccccc2c2ccccc12` [9-Phenanthrol], for which the AC50 was 0.7409.

For `CSC(C)(C)C=NO` [Aldicarb oxime], the AC50 is on record as 0.7517. Take `CCNc1nc(Cl)nc(NC(C)C)n1` [Atrazine]: the AC50 is listed as 0.9162.

Take `COP(=S)(OC)SCn1nnc2ccccc2c1=O` [Azinphos-methyl]: the AC50 is -0.4803. In the case of `O=C(Nc1ccccc1)c1ccccc1I` [Benodanil], the AC50 is on record as -1.884. Consider `Nc1ccc(-c2ccc(N)cc2)cc1` [Benzidine], for which the AC50 was 0.5505. On to `COc1ccc(-c2ccccc2)cc1NNC(=O)OC(C)C` [Bifenazate], for which the AC50 is given as -0.1841. With `O=[N+]([O-])C(Br)(CO)CO` [Bronopol], the AC50 is 0.9179.

As for `CC(C)(O)c1coc(S(=O)(=O)NC(=O)Nc2c3c(cc4c2CCC4)CCC3)c1` [CP-456773], the AC50 is listed as -1.144.

For `CCCCN(CCCC)SN(C)C(=O)Oc1cccc2c1OC(C)(C)C2` [Carbosulfan], the AC50 is listed as 0.7573. With `CCOC(=O)C(Cl)Cc1cc(-n2nc(C)n(C(F)F)c2=O)c(F)cc1Cl` (stereo not drawn) [Carfentrazone-ethyl], the AC50 was 0.8125. In the case of `CN(C)CCCN1c2ccccc2Sc2ccc(Cl)cc21` [Chlorpromazine hydrochloride], the AC50 was 0.7565.

Regarding `C#CCOC(=O)[C@@H](C)Oc1ccc(Oc2ncc(Cl)cc2F)cc1` [Clodinafop-propargyl], the AC50 was 0.4557. Turning to `CCOP(=S)(OCC)Oc1ccc2c(C)c(Cl)c(=O)oc2c1` [Coumaphos], the AC50 was -0.5619. As for `CC1COC(Cn2cncn2)(c2ccc(Oc3ccc(Cl)cc3)cc2Cl)O1` (stereo not drawn) [Difenoconazole], the AC50 is recorded as 0.1639.

Consider `COc1ccc(C(=CC(=O)N2CCOCC2)c2ccc(Cl)cc2)cc1OC` [Dimethomorph], for which the AC50 was 0.8349.

As to `Cc1[nH]cnc1C[C@H]1CCc2c(C)c3ccccc3n2C1=O.Cl` [Fabesetron hydrochloride], the AC50 is recorded as 0.583. For `CCOP(=O)(NC(C)C)Oc1ccc(SC)c(C)c1` (stereo not drawn) [Fenamiphos], the AC50 is on record as 0.6838. As to `OC(c1ccc(Cl)cc1)(c1cncnc1)c1ccccc1Cl` (stereo not drawn) [Fenarimol], the AC50 is 0.89. For the compound `N#CC(CCc1ccc(Cl)cc1)(Cn1cncn1)c1ccccc1` (stereo not drawn) [Fenbuconazole], the AC50 is -0.05845. On to `O=C(Nc1ccccc1)Nc1ccnc(Cl)c1` [Forchlorfenuron], for which the AC50 is 0.9909. `CN(C)c1ccc(C(=C2C=CC(=[N+](C)C)C=C2)c2ccc(N(C)C)cc2)cc1` [Gentian Violet]: the AC50 was 0.2591. As to `C=CCOC(Cn1ccnc1)c1ccc(Cl)cc1Cl` (stereo not drawn) [Imazalil], the AC50 is reported as 0.1501. In the case of `CC(C)NC(=O)N1CC(=O)N(c2cc(Cl)cc(Cl)c2)C1=O` [Iprodione], the AC50 is given as 0.8242.

As for `CON(C)C(=O)Nc1ccc(Cl)c(Cl)c1` [Linuron], the AC50 is reported as 0.4776. For the compound `CCOC(=O)CC(SP(=S)(OC)OC)C(=O)OCC` (stereo not drawn) [Malathion], the AC50 is listed as 0.4737.

Consider `CC#Cc1cc(C)nc(Nc2ccccc2)n1` [Mepanipyrim], for which the AC50 was -0.2464. In the case of `COc1nn(CSP(=S)(OC)OC)c(=O)s1` [Methidathion], the AC50 was 0.6887.

With `COP(=S)(OC)Oc1ccc([N+](=O)[O-])cc1` [Methyl parathion], the AC50 is on record as 0.8544.

In the case of `CNc1cnn(-c2cccc(C(F)(F)F)c2)c(=O)c1Cl` [Norflurazon], the AC50 is reported as 0.8239.

Regarding `CCOP(=S)(OCC)Oc1ccc([N+](=O)[O-])cc1` [Parathion], the AC50 is listed as 0.5508.

On to `O=[N+]([O-])c1c(Cl)c(Cl)c(Cl)c(Cl)c1Cl` [Pentachloronitrobenzene], for which the AC50 is -0.9415. For the compound `CCOP(=S)(OCC)SCSCC` [Phorate], the AC50 was 0.6456. `CCOP(=S)(OCC)SCn1c(=O)oc2cc(Cl)ccc21` [Phosalone]: the AC50 is listed as -0.311. With `COP(=S)(OC)SCN1C(=O)c2ccccc2C1=O` [Phosmet], the AC50 was 0.5339. Turning to `CCCCOCCOCCOCc1cc2c(cc1CCC)OCO2` [Piperonyl butoxide], the AC50 is given as 0.8015. As for `CCCN(CCOc1c(Cl)cc(Cl)cc1Cl)C(=O)n1ccnc1` [Prochloraz], the AC50 is given as -0.384. In the case of `CSc1nc(NC(C)C)nc(NC(C)C)n1` [Prometryn], the AC50 is 0.888. For `CCNP(=S)(OC)O/C(C)=C/C(=O)OC(C)C` (stereo not drawn) [Propetamphos], the AC50 is reported as 0.3484. `CCCC1COC(Cn2cncn2)(c2ccc(Cl)cc2Cl)O1` (stereo not drawn) [Propiconazole]: the AC50 is 0.9547. In the case of `C#CC(C)(C)NC(=O)c1cc(Cl)cc(Cl)c1` [Propyzamide], the AC50 is recorded as 0.363.

As for `COC(=O)N(OC)c1ccccc1COc1ccn(-c2ccc(Cl)cc2)n1` [Pyraclostrobin], the AC50 is 0.2248.

On to `O=C(c1ccc(OCCN2CCCCC2)cc1)c1c(-c2ccc(O)cc2)sc2cc(O)ccc12` [Raloxifene hydrochloride], for which the AC50 was 0.811. `COC(=O)[C@H]1[C@H]2C[C@@H]3c4[nH]c5cc(OC)ccc5c4CCN3C[C@H]2C[C@@H](OC(=O)c2cc(OC)c(OC)c(OC)c2)[C@@H]1OC` [Reserpine]: the AC50 is given as -0.938. As for `C=C(C)[C@H]1Cc2c(ccc3c2O[C@@H]2COc4cc(OC)c(OC)cc4[C@@H]2C3=O)O1` [Rotenone], the AC50 is 0.8835. Turning to `CCNc1nc(Cl)nc(NCC)n1` [Simazine], the AC50 is listed as 0.05448. In the case of `c1ccc2[nH]c(-c3cscn3)nc2c1` [Thiabendazole], the AC50 is reported as 0.674. For `CS/C(C)=N\OC(=O)N(C)SN(C)C(=O)O/N=C(\C)SC` [Thiodicarb], the AC50 is recorded as 0.9955. In the case of `CC(C)(C)C(=O)C(Oc1ccc(Cl)cc1)n1cncn1` (stereo not drawn) [Triadimefon], the AC50 is recorded as 0.3192. With `CCCOC/C(=N\c1ccc(Cl)cc1C(F)(F)F)n1ccnc1` [Triflumizole], the AC50 is reported as 0.6164. With `CC1(C)CCC(=Cc2ccc(Cl)cc2)C1(O)Cn1cncn1` (stereo not drawn) [Triticonazole], the AC50 is reported as -0.101. As for Chlorpyrifos oxon, the AC50 is 0.9288.

The term IC50 denotes the midpoint of a concentration-inhibition curve.

These data come from PMC8380238, “Structure-based virtual screening of CYP1A1 inhibitors: towards rapid tier-one assessment of potential developmental toxicants” (Archives of Toxicology, 2021).
